Reference: patent publication US7473790B2 (Pfizer Inc., priority 2003, dated 2009)

Molecular target: T1, HCV polymerase (Hepatitis C virus genotype 1b, UniProt P26663)
T1 construct: 2.5 pmoles (0.15 μg) HCV polymerase protein in a final volume of 75 μL
Assay: HCV polymerase primer/template-directed transcription assay (32P-GTP incorporation, filter binding)
Assay type: biochemical
Settings: recombinant HCV polymerase; 30 minutes at 30° C.; concentration giving 50% inhibition of polymerase-directed transcription; read-out: IC50
Procedure, shortened: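 Recombinant genotype 1b polymerase (30 nM) extended biotin-dG12 primer on poly(rC)300 template with 1 μM GTP plus α-32P-GTP, pH 7.2, 10 mM MgCl2, 30 min at 30° C, 1% DMSO final. Products captured on DE filters and counted. IC50 fitted from triplicate cpm, with a tight-binding correction applied below 200 nM.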

T1 sequence (P26663 2420-3010): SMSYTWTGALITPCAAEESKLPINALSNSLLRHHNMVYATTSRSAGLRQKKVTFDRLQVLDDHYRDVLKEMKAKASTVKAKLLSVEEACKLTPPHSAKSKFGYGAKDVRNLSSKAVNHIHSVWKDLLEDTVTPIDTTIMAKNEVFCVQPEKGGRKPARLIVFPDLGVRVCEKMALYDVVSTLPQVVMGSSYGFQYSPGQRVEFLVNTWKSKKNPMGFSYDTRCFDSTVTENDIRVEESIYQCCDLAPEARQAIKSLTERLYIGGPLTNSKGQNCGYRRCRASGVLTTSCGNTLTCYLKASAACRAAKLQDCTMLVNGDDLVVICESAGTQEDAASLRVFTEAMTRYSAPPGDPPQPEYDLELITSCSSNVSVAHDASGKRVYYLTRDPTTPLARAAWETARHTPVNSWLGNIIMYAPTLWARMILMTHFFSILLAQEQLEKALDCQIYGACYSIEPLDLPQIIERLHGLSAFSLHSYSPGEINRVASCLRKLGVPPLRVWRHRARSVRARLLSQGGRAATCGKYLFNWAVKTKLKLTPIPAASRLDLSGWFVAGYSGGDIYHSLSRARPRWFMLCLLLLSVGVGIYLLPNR

CCc1cc(CCC2(C3CCCC3)CC(O)=C(Cc3nc4ncccn4n3)C(=O)O2)c(OC)cc1O (single isomer, unassigned) [A(208), 6-cyclopentyl-6-[2-(5-ethyl-4-hydroxy-2-methoxyphenyl)ethyl]-4-hydroxy-3-([1,2,4]triazolo[1,5-a]pyrimidin-2-ylmethyl)-5,6-dihydro-2H-pyran-2-one]
IC50: 7 nM

CC(=O)c1ccc(CCC2(C3CCCC3)CC(=O)CC(=O)O2)s1 (centres unmarked) [A(84), 6-[2-(5-Acetyl-thiophen-2-yl)-ethyl]-6-cyclopentyl-dihydro-pyran-2,4-dione]
IC50: 6800 nM

CCc1cc(CCC2(C3CCCC3)CC(O)=C(Cc3nc4nc(C)cc(C)n4n3)C(=O)O2)c2c(c1O)CCO2 (centres unmarked) [A(180), 6-Cyclopentyl-3-(5,7-dimethyl-[1,2,4]triazolo[1,5-a]pyrimidin-2-ylmethyl)-6-[2-(5-ethyl-4-hydroxy-2,3-dihydro-benzofuran-7-yl)-ethyl]-4-hydroxy-5,6-dihydro-pyran-2-one]
IC50: 10 nM

COc1ccc(CCC2(C3CCCC3)CC(=O)C(Cc3nccs3)C(=O)O2)cc1Cl (centres unmarked) [B(47), 6-[2-(3-chloro-4-methoxyphenyl)ethyl]-6-cyclopentyl-3-(1,3-thiazol-2-ylmethyl)dihydro-2H-pyran-2,4(3H)-dione]
IC50: 800 nM

COc1cc(OC)c(CCC2(C3CCCC3)CC(O)=C(Cc3nc(C)cc(=O)[nH]3)C(=O)O2)cc1Cl (centres unmarked) [B(68), 2-({6-[2-(5-Chloro-2,4-dimethoxyphenyl)ethyl]-6-cyclopentyl-4-hydroxy-2-oxo-5,6-dihydro-2H-pyran-3-yl}methyl)-6-methylpyrimidin-4(3H)-one]
IC50: 100 nM

CCc1cc(CCC2(C3CCCC3)CC(O)=C(Cc3nc4nc(C)cc(C)n4n3)C(=O)O2)ccc1OCCO (centres unmarked) [B(104), 6-Cyclopentyl-3-(5,7-dimethyl-[1,2,4]triazolo[1,5-a]pyrimidin-2-ylmethyl)-6-{2-[3-ethyl-4-(2-hydroxy-ethoxy)-phenyl]-ethyl}-4-hydroxy-5,6-dihydro-pyran-2-one]
IC50: 3 nM

COc1ccc(CCC2(C3CCCC3)CC(O)=C(Sc3nc4nccc(C)n4n3)C(=O)O2)cc1Cl (centres unmarked) [C(95), 6-[2-(3-chloro-4-methoxyphenyl)ethyl]-6-cyclopentyl-4-hydroxy-3-[(7-methyl[1,2,4]triazolo[1,5-a]pyrimidin-2-yl)thio]-5,6-dihydro-2H-pyran-2-one]
IC50: 74 nM

Cc1cc(C)n2nc(CC3=C(O)CC(CCc4ccc(C(C)(C)C#N)c(F)c4)(C4CCCC4)OC3=O)nc2n1 (centres unmarked) [B(75), 2-(4-{2-[2-Cyclopentyl-5-(5,7-dimethyl-[1,2,4]triazolo[1,5-a]pyrimidin-2-ylmethyl)-4-hydroxy-6-oxo-3,6-dihydro-2H-pyran-2-yl]-ethyl}-2-fluoro-phenyl)-2-methyl-propionitrile]
IC50: 3 nM

N#CC1(c2ccc(CCC3(C4CCCC4)CC(=O)C(Cc4nc5ncc(Cl)cn5n4)C(=O)O3)cc2F)CC1 (centres unmarked) [A(115), 1-(4-{2-[5-(6-Chloro-[1,2,4]triazolo[1,5-a]pyrimidin-2-ylmethyl)-2-cyclopentyl-4,6-dioxo-tetrahydro-pyran-2-yl]-ethyl}-2-fluoro-phenyl)-cyclopropanecarbonitrile]
IC50: 5 nM

CCn1cc(CCC2(C3CCCC3)CC(=O)CC(=O)O2)ccc1=O (centres unmarked) [A(01), 6-Cyclopentyl-6-[2-(1-ethyl-6-oxo-1,6-dihydro-pyridin-3-yl)-ethyl]-dihydro-pyran-2,4-dione]
IC50: 38300 nM

CCOc1ccc(CCC2(C3CCCC3)CC(O)=C(Cc3nc4nc(C)cc(C)n4n3)C(=O)O2)cc1F (centres unmarked) [B(02), 6-Cyclopentyl-3-(5,7-dimethyl-[1,2,4]triazolo[1,5-a]pyrimidin-2-ylmethyl)-6-[2-(4-ethoxy-3-fluoro-phenyl)-ethyl]-4-hydroxy-5,6-dihydro-pyran-2-one]
IC50: 27 nM

O=C1OC(CCc2ccc(O)c(CC(F)(F)F)c2)(C2CCCC2)CC(O)=C1Cc1nc2ncc(Cl)cn2n1 (racemic) [A(223), 3-[(6-chloro[1,2,4]triazolo[1,5-a]pyrimidin-2-yl)methyl]-6-cyclopentyl-4-hydroxy-6-{2-[4-hydroxy-3-(2,2,2-trifluoroethyl)phenyl]ethyl}-5,6-dihydro-2H-pyran-2-one]
IC50: 5 nM

COc1cc(OC)c(CCC2(C3CCCC3)CC(O)=C(Sc3nc4nc(C)ccn4n3)C(=O)O2)cc1Cl (centres unmarked) [C(82), 6-[2-(5-chloro-2,4-dimethoxyphenyl)ethyl]-6-cyclopentyl-4-hydroxy-3-[(5-methyl[1,2,4]triazolo[1,5-a]pyrimidin-2-yl)thio]-5,6-dihydro-2H-pyran-2-one]
IC50: 27 nM

CCC(C#N)(CC)c1c(F)cc(CCC2(C3CCCC3)CC(O)=C(Cc3nc4ncc(C)cn4n3)C(=O)O2)cc1F (racemic) [A(262), 2-(4-{2-[2-Cyclopentyl-4-hydroxy-5-(6-methyl-[1,2,4]triazolo[1,5-a]pyrimidin-2-ylmethyl)-6-oxo-3,6-dihydro-2H-pyran-2-yl]-ethyl}-2,6-difluoro-phenyl)-2-ethyl-butyronitrile]
IC50: 6 nM

COc1ccc(CCC2(C3CCCC3)CC(O)=C(Cc3nc4nc(C)cc(C)n4n3)C(=O)O2)cc1F (centres unmarked) [B(01)]
IC50: 15 nM

O=C1OC(CCc2ccc(O)c(CC(F)(F)F)c2)(C2CCCC2)CC(O)=C1Cc1nc2ncc(Cl)cn2n1 (racemic) [A(227), 3-[(6-chloro[1,2,4]triazolo[1,5-a]pyrimidin-2-yl)methyl]-6-cyclopentyl-4-hydroxy-6-{2-[4-hydroxy-3-(2,2,2-trifluoroethyl)phenyl]ethyl}-5,6-dihydro-2H-pyran-2-one]
IC50: 10 nM

CCCOc1ccc(CCC2(C3CCCC3)CC(=O)CC(=O)O2)cc1 (centres unmarked) [A(60), 6-Cyclopentyl-6-[2-(4-propoxy-phenyl)-ethyl]-dihydro-pyran-2,4-dione]
IC50: 8700 nM

COc1cc(OC)c(CCC2(C3CCCC3)CC(O)=C(Sc3nccnc3C)C(=O)O2)cc1Cl (centres unmarked) [C(78), 6-[2-(5-chloro-2,4-dimethoxyphenyl)ethyl]-6-cyclopentyl-4-hydroxy-3[(3-methylpyrazin-2-yl)thio]-5,6-dihydro-2H-pyran-2-one]
IC50: 47 nM

COc1ccc(CCC2(C3CCCC3)CC(O)=C(Sc3nc(C)cc(C)c3C#N)C(=O)O2)cc1Cl (centres unmarked) [C(105), 2-({6-[2-(3-chloro-4-methoxyphenyl)ethyl]-6-cyclopentyl-4-hydroxy-2-oxo-5,6-dihydro-2H-pyran-3-yl}thio)-4,6-dimethylnicotinonitrile]
IC50: 200 nM

CCc1cc(CCC2(C3CCCC3)CC(O)=C(Cc3nc4ncc(Br)cn4n3)C(=O)O2)ccc1O (centres unmarked) [A(230), 3-[(6-bromo[1,2,4]triazolo[1,5-a]pyrimidin-2-yl)methyl]-6-cyclopentyl-6-[2-(3-ethyl-4-hydroxyphenyl)ethyl]-4-hydroxy-5,6-dihydro-2H-pyran-2-one]
IC50: 11 nM

CCc1noc(CC2=C(O)CC(CCc3cc(Cl)c(OC)cc3OC)(C3CCCC3)OC2=O)n1 (centres unmarked) [B(62), 6-[2-(5-Chloro-2,4-dimethoxyphenyl)ethyl]-6-cyclopentyl-3-[(3-ethyl-1,2,4-oxadiazol-5-yl)methyl]-4-hydroxy-5,6-dihydro-2H-pyran-2-one]
IC50: 200 nM

COc1ccc(CCC2(C3CCCC3)CC(O)=C(Sc3nc4c(C)cccc4[nH]3)C(=O)O2)cc1Cl (centres unmarked) [C(54), 6-[2-(3-chloro-4-methoxyphenyl)ethyl]-6-cyclopentyl-4-hydroxy-3-[(4-methyl-1H-benzimidazol-2-yl)thio]-5,6-dihydro-2H-pyran-2-one]
IC50: 220 nM

Cc1cnc2nc(CC3=C(O)CC(CCc4ccc(C(C)(C)C#N)c(Cl)c4)(C4CCCC4)OC3=O)nn2c1 (racemic) [A(203), 2-(2-Chloro-4-{2-[2-cyclopentyl-4-hydroxy-5-(6-methyl-[1,2,4]triazolo[1,5-a]pyrimidin-2-ylmethyl)-6-oxo-3,6-dihydro-2H-pyran-2-yl]-ethyl}-phenyl)-2-methyl-propionitrile]
IC50: 20 nM

CCc1cc(CCC2(C3CCCC3)CC(O)=C(Cc3nc4nc(C)cc(C)n4n3)C(=O)O2)ccc1O (centres unmarked) [B(07), 6-Cyclopentyl-3-(5,7-dimethyl-[1,2,4]triazolo[1,5-a]pyrimidin-2-ylmethyl)-6-[2-(3-ethyl-4-hydroxy-phenyl)-ethyl]-4-hydroxy-5,6-dihydro-pyran-2-one]
IC50: 1 nM

CC(=O)Nc1ccc(CCC2(C3CCCC3)CC(=O)CC(=O)O2)cc1F (centres unmarked) [A(07), N-{4-[2-(2-Cyclopentyl-4,6-dioxo-tetrahydro-pyran-2-yl)-ethyl]-2-fluoro-phenyl}-acetamide]
IC50: 13400 nM

CCc1cc(CCC2(C3CCCC3)CC(O)=C(Cc3nc4ncc(Cl)cn4n3)C(=O)O2)c(OC)cc1O (racemic) [A(211), (−)-3-[(6-chloro[1,2,4]triazolo[1,5-a]pyrimidin-2-yl)methyl]-6-cyclopentyl-6-[2-(5-ethyl-4-hydroxy-2-methoxyphenyl)ethyl]-4-hydroxy-5,6-dihydro-2H-pyran-2-one]
IC50: 4 nM

CCc1cc(CCC2(C3CCCC3)CC(O)=C(Cc3nc4nc(C)cc(C)n4n3)C(=O)O2)c(OC)cc1O (single isomer, unassigned; (-)) [A(155), (−)-6-Cyclopentyl-3-(5,7-dimethyl-[1,2,4]triazolo[1,5-a]pyrimidin-2-ylmethyl)-6-[2-(5-ethyl-4-hydroxy-2-methoxy-phenyl)-ethyl]-4-hydroxy-5,6-dihydro-pyran-2-one]
IC50: 3 nM

N#CC1(c2ccc(CCC3(C4CCCC4)CC(O)=C(Cc4nc5ncc(Cl)cn5n4)C(=O)O3)cc2F)CCCC1 (centres unmarked) [A(191), 1-(4-{2-[5-(6-Chloro-[1,2,4]triazolo[1,5-a]pyrimidin-2-ylmethyl)-2-cyclopentyl-4-hydroxy-6-oxo-3,6-dihydro-2H-pyran-2-yl]-ethyl}-2-fluoro-phenyl)-cyclopentanecarbonitrile]
IC50: 17 nM

COc1ccc(CCC2(C3CCCC3)CC(=O)CC(=O)O2)cc1C1CC1 (centres unmarked) [A(130), 6-Cyclopentyl-6-[2-(3-cyclopropyl-4-methoxy-phenyl)-ethyl]-dihydro-pyran-2,4-dione]
IC50: 1300 nM
